Experiments:
Conditions in all cases: 72 h
Calu-3 [1] = experiment: relative viability EC50 (midpoint between 100% and the lowest measured viability); higher = less toxic
HepG2 [2] = experiment: as above
U2OS [3] = experiment: as above
Caco-2 [4] = experiment: as above
Vero E6 [5] = experiment: as above
Calu-3 [6] = experiment: cell viability relative to DMSO; higher = less toxic
HepG2 [7] = experiment: as above
U2OS [8] = experiment: as above
Caco-2 [9] = experiment: as above
Vero E6 [10] = experiment: as above
Calu-3 [11] = experiment: drug sensitivity score (DSS) for viability; higher = more toxic; extreme values may be limits of the assay
HepG2 [12] = experiment: as above
U2OS [13] = experiment: as above
Caco-2 [14] = experiment: as above
Vero E6 [15] = experiment: as above

Structure (SMILES)	relative viability EC50 (Calu-3 [1]) [µM]	relative viability EC50 (HepG2 [2]) [µM]	relative viability EC50 (U2OS [3]) [µM]	relative viability EC50 (Caco-2 [4]) [µM]	relative viability EC50 (Vero E6 [5]) [µM]	cell viability (Calu-3 [6]; 1 nM) [%]	cell viability (Calu-3 [6]; 10 nM) [%]	cell viability (Calu-3 [6]; 100 nM) [%]	cell viability (Calu-3 [6]; 1000 nM) [%]	cell viability (Calu-3 [6]; 10000 nM) [%]	cell viability (HepG2 [7]; 1 nM) [%]	cell viability (HepG2 [7]; 10 nM) [%]	cell viability (HepG2 [7]; 100 nM) [%]	cell viability (HepG2 [7]; 1000 nM) [%]	cell viability (HepG2 [7]; 10000 nM) [%]	cell viability (U2OS [8]; 1 nM) [%]	cell viability (U2OS [8]; 10 nM) [%]	cell viability (U2OS [8]; 100 nM) [%]	cell viability (U2OS [8]; 1000 nM) [%]	cell viability (U2OS [8]; 10000 nM) [%]	cell viability (Caco-2 [9]; 1 nM) [%]	cell viability (Caco-2 [9]; 10 nM) [%]	cell viability (Caco-2 [9]; 100 nM) [%]	cell viability (Caco-2 [9]; 1000 nM) [%]	cell viability (Caco-2 [9]; 10000 nM) [%]	cell viability (Vero E6 [10]; 1 nM) [%]	cell viability (Vero E6 [10]; 10 nM) [%]	cell viability (Vero E6 [10]; 100 nM) [%]	cell viability (Vero E6 [10]; 1000 nM) [%]	cell viability (Vero E6 [10]; 10000 nM) [%]	drug sensitivity score (Calu-3 [11])	drug sensitivity score (HepG2 [12])	drug sensitivity score (U2OS [13])	drug sensitivity score (Caco-2 [14])	drug sensitivity score (Vero E6 [15])
COc1cc(C(=S)N2CCOCC2)cc(OC)c1OC [sulmetozine]	> 10	> 10	> 10	> 10	> 10	96.5	99.4	102	99.9	105	95	102	98.6	111	108	97.2	103	94.6	96.3	102	90.8	98	90.6	91.6	103	103	94.7	105	97.7	113	0	0	0	0	0
Cc1coc2c1C(=O)C(=O)c1c-2ccc2c(C)cccc12 [tanshinone-I]	> 10	> 10	> 10	> 10	> 10	93.8	91.7	104	110	100	91	104	89.4	111	105	97.8	97.8	103	93.9	95.2	93.1	97.4	104	90.7	86.2	91.9	94.9	90.7	96.5	104	0	0	0	0.7	0
CCCCCNC(=N)N/N=C/c1c[nH]c2ccc(OC)cc12 [tegaserod]	> 10	> 10	> 10	> 10	> 10	105	96.3	97.9	91.4	92.9	94.6	94	109	105	114	94.1	99.3	94.6	97.7	95.9	83.7	89.8	108	84.7	96.9	100	94.4	97.8	90.7	92.8	0	0	0	0	0
O=C(CNC(=O)c1cccc(C(F)(F)F)c1)N[C@@H]1CCN(Cc2ccc(Cl)cc2)C1 [teijin-compound-1]	> 10	> 10	> 10	> 10	> 10	95.9	98.8	95.9	94.4	91.5	108	110	107	92	83.8	95.7	98.5	95.6	99.7	91.1	113	108	106	98.8	78	109	102	100	98.1	94.8	0	1	0	0.9	0
CCOC(=O)[C@H](CCc1ccccc1)N[C@H]1CS[C@H](c2cccs2)CN(CC(=O)O)C1=O [temocapril]	> 10	> 10	> 10	> 10	> 10	93.8	108	95.5	103	102	103	98.6	108	96.7	112	97.7	101	94.2	99.2	95.4	99.4	95.8	93.2	93.3	105	98.8	105	109	91.3	97.8	0	0	0	0	0
COc1cc2c(cc1OC)C1CC(=O)C(CC(C)C)CN1CC2 (stereo not given) [tetrabenazine]	> 10	> 10	> 10	> 10	> 10	107	103	96.3	105	104	95.1	99.4	98.8	99.9	105	95.9	99.3	94.7	93.9	103	97.6	99.3	96.3	96.5	100	96.6	97.8	96.2	99.1	95	0	0	0	0	0
O=C(O)C(=O)c1cn(Cc2ccccc2)c2ccc(-c3ccc(OC(F)(F)F)cc3)cc12 [tiplaxtinin]	> 10	> 10	> 10	> 10	> 10	113	95.5	96.8	98.6	104	104	98.8	102	93.8	93.1	94.5	92.1	104	94.7	96.5	104	106	102	92.2	92.8	108	106	96.6	98.2	81.3	0	0	0	0	0.7

Source: the supplement of paper PMC13380429
